Consider 4 compounds from ChEMBL document CHEMBL1154142, “Tyrosine derivatives isolated from Streptomyces sp. IFM 10937 in a screening program for TRAIL-resistance-overcoming activity” (2008).

What all share (format): functional
Assay [1] relates to AGS. Description: Anticancer activity against TRAIL-resistant human AGS cells assessed as cell viability at 150 uM after 24 hrs by fluorometric microculture cytotoxicity assay in presence of 100 ng/ml TRAIL.
Assay [2] relates to AGS. Description: Anticancer activity against TRAIL-resistant human AGS cells assessed as cell viability at 75 uM after 24 hrs by fluorometric microculture cytotoxicity assay in presence of 100 ng/ml TRAIL.
In assay [3] the test system is AGS. The assay is described as follows: Anticancer activity against TRAIL-resistant human AGS cells assessed as cell viability at 17.5 uM after 24 hrs by fluorometric microculture cytotoxicity assay in presence of 100 ng/ml TRAIL.
For assay [4], the system named is AGS. The assay is described as follows: Anticancer activity against TRAIL-resistant human AGS cells assessed as cell viability at 37.5 uM after 24 hrs by fluorometric microculture cytotoxicity assay in presence of 100 ng/ml TRAIL.

Calls of active or inactive are those of the source. The rule behind the calls is not given here.

In the case of `CC(=O)N[C@@H](Cc1ccc(O)c(CC=C(C)C)c1)C(=O)O`, the Activity in the assay with AGS [1] is 67%; with AGS [2], 77%. In the case of `O=c1cc(-c2ccc(O)c(O)c2)oc2cc(O)cc(O)c12` [LUTEOLIN], the Activity with AGS [3] was 70%. Regarding `CC(C)=CCc1cc(C[C@H](N)C(=O)O)ccc1O`, the outcome with AGS [1] and in the assay with AGS [2] was inactive. As to `CO[C@@H]1[C@@H](OC(N)=O)[C@@H](O)[C@H](Oc2ccc3c(O)c(NC(=O)c4ccc(O)c(CC=C(C)C)c4)c(=O)oc3c2C)OC1(C)C` [NOVOBIOCIN], the Activity in the assay on AGS [4] is 72%; in the assay with AGS [2] it was 63%.
